Results on 11 compounds are retold here after patent US20110212101A1, “MATERIALS AND METHODS FOR EXPLOITING SYNTHETIC LETHALITY IN MISMATCH REPAIR-DEFICIENT CANCERS” (priority 2007, published 2011).

One test deals with POLG. The note with it: cited from earlier work; for inhibition of POLG activity in vitro: extent of inhibition varies widely.
The subject of test [1] is POLB mRNA in MSH2 deficient and proficient cells. Briefly: POLB mRNA by qRT-PCR after H2O2. It is filed as cell-based, human. Conditions: 100 μM H202, RNA isolated after 15 mins. As to the method:
Quantification of RNA expression was measured by real time RT-PCR. Total RNA was extracted from cells with Trizol (Invitrogen) according to manufacturer's instructions. Total RNA from patient biopsies was purified from 10 μm sections using the High Pure RNA Paraffin Kit (Roche Diagnostic Ltd). cDNA was synthesized using Omniscript Reverse Transcriptase System for RT-PCR (Qiagen) with oligo dT as per manufacturer's instructions. Assay-on-Demand primer/probe sets were purchased from Applied Biosystems (Foster City, Calif.). Real-Time qPCR was performed on the […] Fast Real-Time PCR System (Applied Biosystems), with endogenous control β-Actin. Standard curves were calculated for all reactions with serial dilutions of control Hec59+chr2 cells to calculate reaction efficiency. Gene expression was calculated relative to expression of β-Actin endogenous control, and adjusted relative to expression in control Hec59+chr2 cells. Samples were quantified in triplicate.

In test [2] the test system is OGG1 expression in HeLa cells. Nature of the test: Western blot for OGG1 expression. It is filed as cell-based, human. The note with it: POLB silenced cells; 50 μM MG132, lysates 18 hours later. As to the method:
(§1) Cell pellets were lysed in 20 mmol/L Tris (pH 8), 200 mmol/L NaCl, 1 mmol/L EDTA, 0.5% (v/v) NP40, 10% (v/v) glycerol, and protease inhibitors. Immunoprecipitations were performed by incubating Protein G beads (Sigma), 1-2 mg of precleared cell lysate and anti-POLB antibody (ab3181, Abcam; dilution 1:100) overnight at 4° C. Beads were subsequently washed three times in cold lysis buffer, after which 2× loading buffer was added and the samples were boiled for 5 min before SDS-PAGE. For western blotting, lysates were electrophoresed on Novex precast gels (Invitrogen) and immunoblotted using the following antibodies: anti-MSH2 (Ab-1, Calbiochem), anti-POLB (ab3181, Abcam), anti-MLH1 (ab9144, Abcam), anti-POLG (Novus), anti-PCNA (SC7907, Santa-Cruz), anti-Cytochrome C (Pharmagen) anti-OGG1 (NB100-106, Novus biologicals), anti-CHIP (ab39559, Abcam) and anti-β-tubulin, (T4026, Sigma). This was followed by incubation with anti-IgG-horseradish peroxidase and chemiluminescent detection (SuperSignal West Pico Chemiluminescent Substrate, Pierce). Immunoblotting for (1-tubulin was used as a loading control.
In general terms: Immunoblotting shows a protein as a band on a membrane.

In test [3] the test system is reactive oxygen species (ROS). Conditions: VK3 at 30 μM; leading to apoptosis; cited from earlier work.
The test system of test [4] is Hec59 and Hec59+chr2 cells. Briefly: High-throughput compound inhibitor screen, CellTitre Glo viability. The test is classed as cell-based, human. The note with it: library of 1120 compounds; viability after six days. As to the method:
(§2) Compound libraries were purchased from Prestwick Chemicals (Saffron Walden, Essex, UK). Validation experiments were carried out with Methotrexate (Biomol International L.P.) and Menadione and Partenolide (Prestwick chemicals). Cells were plated in 96-well plates. After 12 hr incubation, cells were exposed to compound or equimolar DMSO and re-treated every 48 hrs. Cell viability was measured six days later using the CellTitre Glo assay (Promega) according to the manufacturer's instructions. Validation of hit compounds was performed by clonogenic assays. Exponentially growing cells were seeded at various densities in six-well plates. Cells were treated with increasing concentrations of the compound. Cell medium was replaced every four days. After ten to fourteen days, cells were fixed in methanol, stained with crystal violet, and counted. The plating efficiencies were calculated as the number of colonies divided by the number of cells plated for each compound treatment. The surviving fraction (SF) for a given sample was calculated as the plating efficiencies for each compound treated cells divided by the plating efficiencies of DMSO treated cells.

Test [5] deals with Hec59 cells (MSH2 deficient). Nature of the test: 8-OHdG ELISA on isolated DNA. It is filed as cell-based, human. The note with it: compound treatment for three days. As to the method: (§3) Genomic DNA was extracted using the Qiamp DNA isolation kit (Qiagen) and digested with nuclease P1. Mitochondrial and nuclear DNA was extracted using the mitochondrial DNA isolation kit (ab65321, Abcam). A commercially available ELISA kit from Cell Biolabs was used to determine levels of 8-OHdG in isolated DNA. The assays were performed according to the manufacturer's instructions. The 8-OHdG standard (0.078-20 ng/ml) or 10 μg DNA from siRNA transfected cells was incubated with a 8-OHdG monoclonal antibody in a microtiter plate precoated with 8-OHdG.
(§4) Addition of […] to replicate samples was followed by measurement of absorbance at 450 nm. Standard curves were calculated for all reactions with serial dilutions of 8-OHdG standard to calculate reaction efficiency. Samples were assayed in triplicate.

The test system of test [6] is Hec59+chr2 cells (MSH2 proficient). Nature of the test: 8-OHdG ELISA on isolated DNA. The test is classed as cell-based, human. The note with it: compound treatment for three days. As to the method: as §3, §4
The subject of a further test is Hec59+chr2 cells. Briefly: Clonogenic survival with methotrexate after MSH2 siRNA. The test is classed as cell-based, human. The note with it: cells transfected with MSH2 siRNA vs siControl; continuous exposure 14 days. As to the method:
(§5) For clonogenic assays, exponentially growing cells were seeded at various densities in six-well plates. Cells were transfected with siRNA as before. Cell medium was replaced every four days. After ten to fourteen days, cells were fixed in methanol, stained with crystal violet, and counted. The plating efficiencies were calculated as the number of colonies divided by the number of cells plated for each siRNA transfection. The surviving fraction (SF) for a given sample was calculated as the plating efficiencies for each siRNA transfection divided by the plating efficiencies of siControl siRNA transfected cells. All transfections were carried out in triplicate.
(§6) Compound libraries were purchased from Prestwick Chemicals (Saffron Walden, Essex, UK). […] Cell viability was measured six days later using the CellTitre Glo assay (Promega) according to the manufacturer's instructions. […] After ten to fourteen days, cells were fixed in methanol, stained with crystal violet, and counted. The plating efficiencies were calculated as the number of colonies divided by the number of cells plated for each compound treatment. The surviving fraction (SF) for a given sample was calculated as the plating efficiencies for each compound treated cells divided by the plating efficiencies of DMSO treated cells.

A further test deals with HeLa cells. The test is described as above. It is filed as cell-based, human. The note with it: cells transfected with MSH2 siRNA vs siControl; continuous exposure 14 days. As to the method:
as §5, §6

The test system of test [7] is POLβ expression in Hec59 and Hec59+chr2 cells. Briefly: Western blot for POLβ expression. It is filed as cell-based, human. The note with it: 72 hours after treatment with methotrexate. The method, then:
as §1
Transfected cell pellets were lysed in 20 mmol/L Tris (pH 8), 200 mmol/L NaCl, 1 mmol/LEDTA, 0.5% (v/v) NP40, 10% (v/v) glycerol, and protease inhibitors. […]

In test [8] the test system is Hec59 and Hec59+chr2 cells. Nature of the test: Clonogenic assay with compounds. It is filed as cell-based, human. Conditions: folic acid added in concert with methotrexate; Hec59 MSH2 deficient cells; 14 days. The method, then: as §2
Another test has as its target POLB (Rattus norvegicus, UniProt P06766). The note with it: read-out: IC50 as POLB inhibitor; cited from earlier work.

Where a SMILES comes first, the peptide text is derived from it. The star is where a group is joined. Cbz = O=C(OCc1ccccc1)*

A word on the IC50: it is the concentration at which inhibition is half-maximal.

Regarding `CC(Cn1cnc2c(N)ncnc21)OCP(=O)(O)OP(=O)(O)OP(=O)(O)O` (stereo in doubt) [tenofovir-DP], the “inhibition of POLG activity in vitro” value in the test on POLG is on record as “inhibit POLG activity in vitro”.

As for `OO` [H202], the “POLB mRNA levels” value in test [1] is on record as “induced”.

Turning to `Nc1ccn([C@@H]2CS[C@H](COP(=O)(O)OP(=O)(O)OP(=O)(O)O)O2)c(=O)n1` [Lamivudine-TP], in the test on POLG, the “inhibition of POLG activity in vitro” value is “inhibit POLG activity in vitro”.

As for `CC(C)C[C@@H](C=O)NC(=O)[C@H](CC(C)C)NC(=O)[C@H](CC(C)C)NC(=O)OCc1ccccc1` [MG132] (Cbz-Leu-Leu-Leu-aldehyde), the OGG1 expression entry in [2] was “restored the expression of OGG1”.

`CC1=CC(=O)c2ccccc2C1=O` [Menadione, 2-methylnaphthalene-1,4-dione]: in test [3], the “reactive oxygen species (ROS)” value is listed as “significant increase”. The “selectivity for MSH2 deficient cells in high-throughput screen” value in [4] was “show selectivity for MSH2 deficient cells”. The “inhibition of POLG” value with POLG (VK3 at 30 μM) was “more than 80%”. The 8-OHdG accumulation result is “increased significantly” in test [5] and “did not increase” in test [6].

As for `CN(Cc1cnc2nc(N)nc(N)c2n1)c1ccc(C(=O)N[C@@H](CCC(=O)O)C(=O)O)cc1` [Methotrexate, (S)-2-(4-(((2,4-diaminopteridin-6-yl)methyl)methylamino)benzamido)pentanedioic acid], the “synthetic lethality with methotrexate (survival)” value in the test on Hec59+chr2 cells and in the test on HeLa cells was “synthetically lethal” in each case. Further, the POLβ expression result in [7] was “reduction of POLβ expression”. Besides, in test [4], the “selectivity for MSH2 deficient cells in high-throughput screen” value is given as “show selectivity for MSH2 deficient cells”. Besides, the 8-OHdG accumulation entry in test [5] was “increased significantly”; in test [6], “did not increase”.

Take `Nc1ncnc2c1ncn2CCOCP(=O)(O)OP(=O)(O)OP(=O)(O)O` [adefovir-diphosphate]: in the test on POLG, the “inhibition of POLG activity in vitro” value is given as “inhibit POLG activity in vitro”.

On to `Nc1nc2ncc(CNc3ccc(C(=O)N[C@@H](CCC(=O)O)C(=O)O)cc3)nc2c(=O)[nH]1` [folic acid], for which the “rescue of methotrexate lethality” value in [8] is reported as “in large part rescues the lethal phenotype”.

On to `C/C(=C/CC[C@H](C)[C@@H]1CC[C@]2(C)C3=CC[C@H]4C(C)(C)C(=O)CC[C@]4(C)[C@H]3CC[C@@]12C)C(=O)O` [masticadienonic acid], for which the IC50 on POLB is 8 µM.

As to `Nc1ccn([C@H]2CC[C@@H](COP(=O)(O)OP(=O)(O)OP(=O)(O)O)O2)c(=O)n1` [zalcitabine-TP], the “inhibition of POLG activity in vitro” value in the test on POLG was “inhibit POLG activity in vitro”.

Regarding `Cc1cn([C@H]2C[C@H](N=[N+]=[N-])[C@@H](COP(=O)(O)OP(=O)(O)OP(=O)(O)O)O2)c(=O)[nH]c1=O` [zidovudine-TP], the “inhibition of POLG activity in vitro” value in the test with POLG is given as “inhibit POLG activity in vitro”.
